SMILES strings stand for the structures.

This data set in a line: gradient 5% acetonitrile 3 min, to 50% in 2 min, to 85% in 15 min, held 3 min, 100 µL/min. The settings on record: column: Zorbax Extend-C18 2.1 x 50 mm; eluents: water / acetonitrile, 0.1% formic acid. The method in brief: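 Retention times of pure standards were taken from adduct peaks that were selected by computer and manually inspected. Over 3 months, mixtures of ~100 molecules were run by HPLC–quadrupole time-of-flight mass spectrometry in positive and negative ionization mode. The Zorbax Extend-C18 column (2.1 × 50 mm, 1.8 μm) ran at 100 μL/min in water and acetonitrile, each containing 0.1% formic acid, with 40 μL dead volume and 900 μL dwell volume.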
As for `COc1ccc(-c2cn3c(CC(=O)N(Cc4ccco4)C4CCCCC4)csc3n2)cc1OC`, the RP-LC retention time was determined as 890 s. `O=C(NC1CCCCCC1)c1ccc(CN2CCN(Cc3ccccc3)C(=O)C2=O)cc1` showed an RP-LC retention time of 812 s. The compound `Cc1nnc2sc(SCC(=O)NCc3ccc4c(c3)OCO4)nn2c1=O` had an RP-LC retention time of 603 s. In turn, `COc1ccc(-c2c(C)noc2NC(C)=O)cc1S(=O)(=O)Nc1ccc(Cl)cc1F` displayed an RP-LC retention time of 807 s. Compound `COc1ccc(-c2nc3ccc(C)cn3c2Nc2ccc(Cl)cc2)cc1` showed an RP-LC retention time of 782 s. As to `Cc1ccc(CNC(=O)C2CCN(c3ccc(SCc4ccccc4)nn3)CC2)cc1`, the RP-LC retention time came to 821 s. For `CCCN(CC1CCOC1)C(=O)Nc1ccccc1OC` (stereo not given) the value was 821 s; for `Cc1ccc(NC(=O)N2CCc3nc[nH]c3C2)c(C)c1`, 578 s. The same measure for `CCOC(=O)c1cc(C(=O)OCC)n(CC(=O)c2ccccc2)n1`: 973 s.

Take `CCNC(=O)C[C@@H]1N=C(c2ccc(Cl)cc2)c2cc(OC)ccc2-n2c(C)nnc21`: the RP-LC retention time turned out to be 797 s.

In turn, `CCc1nc(OCC(=O)Nc2ccc(Br)cc2F)c2ccccc2n1` gave an RP-LC retention time of 910 s. As for `O=C(Nc1ccccc1Cl)N1CCN(c2cnn3cnnc3c2)CC1`, the RP-LC retention time stood at 625 s.

The compound `O=C(O)c1ccc(OCC(=O)C2CC2)cc1` showed an RP-LC retention time of 636 s. As for `COC(=O)c1ccc(NS(=O)(=O)c2cccc(S(C)(=O)=O)c2)cc1`, the RP-LC retention time amounted to 706 s.

Compound `COc1ccccc1-c1noc(-c2nnn3c2COC(c2ccc(F)cc2)C3)n1` (stereo not given) returned an RP-LC retention time of 1040 s. For `O=C(c1cnccn1)N1CCCn2nc(-c3cccc(Cl)c3)cc2C1` the value was 767 s; for `O=C(NCc1ccc(F)cc1)N1CCN(c2cc(-c3ccncc3)[nH]n2)CC1`, 611 s.

The compound `O=C(CN1CCN(Cc2cccc(Cl)c2)C1=O)N1CCN(c2ccccc2)CC1` yielded an RP-LC retention time of 885 s. The compound `CCCNC(=O)C1CCCN(c2nc3ncn(CC(=O)Nc4cc(F)ccc4F)c(=O)c3s2)C1` (stereo not given) had an RP-LC retention time of 716 s. For `CCOC(=O)c1c(S(=O)(=O)N2CCC(C(=O)NCc3ccccc3)CC2)c(C)n(C)c1C` the value was 795 s; for `O=c1cc(O)cc(/C=C/c2ccc(O)c(O)c2)o1`, 680 s; for `CCCN1C(=O)COc2ccc(-c3noc(-c4n[nH]c5c4CCCC5)n3)cc21`, 1000 s. For `CCN(CC)S(=O)(=O)c1ccc2c(c1)N(CC(=O)NCCCOC)C(=O)C1CCCCN21` (stereo not given) the value was 802 s. The same measure for `Cc1ccccc1OCCCC(=O)Nc1nc(-c2ccc(Br)cc2)cs1`: 1280 s; for `Cn1cc(-c2ccncc2)cc1C(=O)N1CCN(c2ccc(F)cc2)CC1`: 632 s.

For the compound `COc1cccc(CNC(=O)Cn2c(=O)c3cc(-c4cccs4)nn3c3ncccc32)c1`, the RP-LC retention time came to 835 s. The compound `COc1ccc(NS(=O)(=O)c2cc3n(c2)CCN(CC(C)C)C3=O)cc1` came in with an RP-LC retention time of 745 s. The same measure for `Cc1ccsc1C(=O)Nc1ccc(-c2nc(-c3ccccc3)co2)cc1`: 1160 s; for `CCn1cc(C2=CCN(C(=O)Cc3ccc(F)cc3)CC2)c2cccnc21`: 876 s; for `CCOc1ccc(Br)cc1C(=O)N1CCNC(=O)C1CC(=O)OC1CCCCC1` (stereo not given): 876 s. The same measure for `O=C(NCc1nn(Cc2ccccc2)c2ccccc12)c1ccoc1`: 870 s; for `CCN(CCNS(=O)(=O)c1ccc2c(c1)CCCC(=O)N2)Cc1ccccc1`: 608 s. For `N#Cc1ccc(-c2csc(NC(=O)c3ccc(Cl)cc3)n2)cc1` the value was 1140 s. `CC(C)C(=O)Nc1cc2c(cc1N(C)C)n(C)c(=O)c(=O)n2C` had an RP-LC retention time of 631 s. The same measure for `O=C(Nc1c(-c2ccc(F)cc2)nc2ccccn12)c1ccc2c(c1)OCO2`: 651 s. Compound `CC(C)Cn1c(=O)c(N2CCN(S(=O)(=O)c3ccccc3)CC2)nc2ccncc21` showed an RP-LC retention time of 612 s. For `N#CCCSc1ccccc1NC(=O)c1ccc(Cl)s1` the value was 908 s. For `Fc1cccc(-c2noc(-c3nnn4c3COC(c3ccc(Cl)cc3)C4)n2)c1` (stereo not given) the value was 1170 s. In the case of `Cc1ccc(-c2noc(Cn3nc(-c4ccccc4F)ccc3=O)n2)cc1`, the RP-LC retention time turned out to be 1050 s. For `CCNC(=O)C1c2ccccc2C(=O)N(CC(C)C)C1c1cccs1` (stereo not given) the value was 818 s; for `CC(C)CN1CCN(C(=O)c2ccc(-c3ccnc(N4CCCC4)n3)cc2)CC1`, 587 s; for `Cc1oc(-c2[nH]ncc2C(=O)N2CCCC2)cc1S(=O)(=O)N(C)C`, 620 s. The same measure for `O=C(Cn1c(CO)cnc1SCc1ccc(Cl)c(Cl)c1)NC1CC1`: 585 s; for `CCCc1ccc(S(=O)(=O)N2CCc3c(c(-c4nnc(-c5ccc(C)cc5)o4)nn3C)C2)cc1`: 1160 s; for `Cc1ccc(NC(=O)N2CCC(C(C)C(=O)Nc3cccc(Cl)c3)CC2)cc1` (stereo not given): 971 s. On to `CCC1Oc2ccc(C)cc2N(CC(=O)NCCN(C)C)C1=O` (stereo not given), for which the RP-LC retention time is 631 s. In turn, `COc1ccc(N2CCN(c3cc(SCC(=O)Nc4ccc(C)cc4)ncn3)CC2)cc1` showed an RP-LC retention time of 966 s. For the compound `Cc1nn(-c2ccc(F)cc2)c2c1c(=O)c(C(=O)NCc1cccs1)cn2C`, the RP-LC retention time was 808 s.

`Cc1ccc(NC(=O)N2CCCC(Cn3cnc4cccnc43)C2)cc1` (stereo not given): the RP-LC retention time is 667 s. For `COc1ccccc1-c1nnc(-c2cc(S(=O)(=O)N3CCCCC3)ccc2Cl)o1` the value was 1080 s; for `COc1ccc(OC)c(C2CN(C(=O)c3ccc4c(c3)OCO4)CC2C(=O)N2CCCC2)c1` (stereo not given), 723 s. The same measure for `CCCCS(=O)(=O)NCC#CCN1CCc2ccccc2C1`: 564 s. The same measure for `CC(C)NC(=O)N1CCCC1c1noc(CCC(=O)NC2CC2)n1` (stereo not given): 603 s; for `Cc1sc2ccn(Cc3ccc(F)cc3)c(=O)c2c1C(=O)NC(C)C`: 814 s.

Consider `CCCn1cc(C2=CCN(S(=O)(=O)c3ccc(NC(C)=O)cc3)CC2)c2cccnc21`, for which the RP-LC retention time was found to be 865 s. For `COc1ccc(Cl)cc1NC(=O)C(=O)NCC1(O)CCOCC1`, the RP-LC retention time was 706 s. `COc1ccccc1NC(=O)c1ccc(CSc2ncccn2)cc1` displayed an RP-LC retention time of 603 s. `O=C(Cc1nnc(-c2ccc3ncccc3c2)o1)NCCc1ccccc1`: the RP-LC retention time came out at 702 s. `CCn1ccc2sc(C)c(C(=O)NCc3cccc(F)c3)c2c1=O` had an RP-LC retention time of 822 s. The compound `Cc1cccc(NC(=O)N2CCc3c(c(-c4nnc(-c5ccc(F)cc5)o4)nn3C)C2)c1C` displayed an RP-LC retention time of 854 s.

The compound `CN1CCC(NC(=O)c2ccc3c(c2)N(S(=O)(=O)c2ccccc2F)CC3)CC1` returned an RP-LC retention time of 626 s. The compound `CC[C@@]1(O)C(=O)OCc2c1cc1n(c2=O)Cc2cc3c(NC(=O)CN)cccc3nc2-1` returned an RP-LC retention time of 626 s. For `CCCn1ccc2sc(C)c(C(=O)NC(C)c3ccccc3)c2c1=O` (stereo not given) the value was 900 s.

Compound `CCOC(=O)c1cccc(Nc2c(-c3ccc(OC)c(OC)c3)nc3cnccn23)c1` yielded an RP-LC retention time of 811 s. Take `COc1ccccc1-c1noc(C2CCCN2C(=O)Nc2cccc(C)c2C)n1` (stereo not given): the RP-LC retention time was found to be 858 s.

In turn, `COCCN1C(=O)c2ccccc2C(C(=O)NCCN2CCOCC2)C1c1ccc(F)cc1` (stereo not given) had an RP-LC retention time of 628 s. For the compound `O=C(Cn1ccnc1-c1ccnc(N2CCCC2)c1)NC1CCCCC1`, the RP-LC retention time amounted to 595 s.

Compound `COC(=O)c1ccc2c(c1)nnn2Cc1ccc(F)cc1` returned an RP-LC retention time of 916 s.

`Cc1nc(-c2cc(S(=O)(=O)N3CCN(c4cccc(C)c4C)CC3)c(C)s2)cs1` returned an RP-LC retention time of 1370 s. Regarding `Cc1ccc(-n2nc(C)c(S(=O)(=O)N3CCN(c4ccccn4)CC3)c2C)cc1`, the RP-LC retention time came out at 721 s. For `CC(C(=O)NCCc1c[nH]c2ccc(Cl)cc12)C1CCN(S(=O)(=O)c2cccs2)CC1` (stereo not given) the value was 921 s; for `COc1cccc(CCC(=O)N2CCc3cc(-c4csc(C)n4)ccc32)c1`, 1040 s; for `O=c1ccc(N2CCC(NS(=O)(=O)c3cccnc3)CC2)nn1CC1CC1`, 700 s. The same measure for `Fc1ccc(-c2noc3ncnc(N4CCN(c5ccccn5)CC4)c23)cc1`: 660 s; for `CC1(C(=O)NCc2ccccc2)CN(S(=O)(=O)c2ccccc2)CC(=O)N1C1CCCCCC1` (stereo not given): 1060 s. The same measure for `CCn1cc(CCN2CCC(C(=O)N3CCOCC3)CC2)c2cccnc21`: 566 s; for `CC(C)C(NC(=O)NCc1ccc(F)cc1)C(=O)N1CCc2ccccc21` (stereo not given): 917 s.

The compound `CCN(CC)C(=O)c1ccc2c(c1)N(CC(=O)N1CCN(c3ccccn3)CC1)C(=O)CS2` yielded an RP-LC retention time of 598 s. The same measure for `O=C(C1CCCN1)N1CCC(OCc2nc(-c3cccnc3)no2)CC1` (stereo not given): 572 s; for `COc1ccc(-c2nnc3ccc(SCC(=O)Nc4nc(C)cs4)nn23)cc1OC`: 606 s.

Values taken from the METLIN SMRT retention time set (Domingo-Almenara et al. 2019).
